Reference: ChEMBL document CHEMBL4732064, “Structure-activity relationship studies of phenothiazine derivatives as a new class of ferroptosis inhibitors together with the therapeutic effect in an ischemic stroke model” (Eur J Med Chem, 2021)
The source made the active and inactive calls. The rule behind the calls is not given here.

Experiments:
Rattus norvegicus [1] = assay: Protective activity in Sprague-Dawley rat model of middle cerebral artery occlusion-induced ischemia-reperfusion injury assessed as reduction in MDA level at 5 mg/kg, iv measured after 24 hrs of post reperfusion […]; type: functional, organism-based
MDA-MB-231 = assay: Inhibition of erastin-induced ferroptosis in human MDA-MB-231 cells assessed as cell viability incubated for 48 hrs by MTT assay; type: functional, cell-based; settings: MDA-MB-231, 48 h
[2] = target: Indoleamine 2,3-dioxygenase 1 (Homo sapiens, UniProt P14902); assay: Inhibition of IDO1 (unknown origin)
Indoleamine 2,3-dioxygenase 1, sequence (P14902 whole entry): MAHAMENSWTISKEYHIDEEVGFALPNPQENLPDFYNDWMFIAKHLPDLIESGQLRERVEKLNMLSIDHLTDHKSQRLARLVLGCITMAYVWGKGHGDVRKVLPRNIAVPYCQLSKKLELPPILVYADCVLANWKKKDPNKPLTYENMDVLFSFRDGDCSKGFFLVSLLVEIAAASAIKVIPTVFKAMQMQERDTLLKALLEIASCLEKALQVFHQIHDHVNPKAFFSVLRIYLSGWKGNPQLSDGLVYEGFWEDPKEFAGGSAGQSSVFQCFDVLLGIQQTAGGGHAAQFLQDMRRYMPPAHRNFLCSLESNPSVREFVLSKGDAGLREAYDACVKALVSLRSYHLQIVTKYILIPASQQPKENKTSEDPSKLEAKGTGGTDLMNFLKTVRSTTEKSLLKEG

HT-1080 [3] = assay: Increase in GSH level in erastin-induced human HT-1080 cell ferroptosis model at 0.01 to 1 uM; type: functional; settings: dose 0.01-1 µM
HT-1080 [4] = assay: Antioxidant activity in erastin-induced human HT-1080 cell ferroptosis model assessed as decrease in cytosolic ROS accumulation at 0.01 to 1 uM incubated for 8 to 24 hrs by DCFH-DA staining based assay; type: functional; settings: dose 0.01-1 µM, time 8-24 hrs
[5] = target: 5-hydroxytryptamine receptor 2A (Homo sapiens) (UniProt P28223); assay: Antagonist activity at HTR2A (unknown origin) by FLIPR assay
5-hydroxytryptamine receptor 2A (Homo sapiens), sequence (P28223 whole entry): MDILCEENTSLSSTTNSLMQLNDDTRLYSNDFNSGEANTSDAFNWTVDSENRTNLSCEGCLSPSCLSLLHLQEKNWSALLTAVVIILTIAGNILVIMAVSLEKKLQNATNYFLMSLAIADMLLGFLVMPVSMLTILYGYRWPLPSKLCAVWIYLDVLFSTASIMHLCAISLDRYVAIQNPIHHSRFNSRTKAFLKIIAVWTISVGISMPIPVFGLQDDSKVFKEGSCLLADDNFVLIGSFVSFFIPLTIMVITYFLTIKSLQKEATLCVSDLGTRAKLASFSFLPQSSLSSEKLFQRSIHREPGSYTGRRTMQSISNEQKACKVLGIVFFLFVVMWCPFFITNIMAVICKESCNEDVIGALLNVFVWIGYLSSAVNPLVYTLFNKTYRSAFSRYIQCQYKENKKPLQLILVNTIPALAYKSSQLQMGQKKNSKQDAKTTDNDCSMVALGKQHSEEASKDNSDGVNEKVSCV

[6] = target: Bifunctional arginine demethylase and lysyl-hydroxylase JMJD6 (Homo sapiens, UniProt Q6NYC1); assay: Inhibition of JMJD6 (unknown origin)
[7] = Metal chelating activity assessed as iron chelation
Rattus norvegicus [8] = assay: Protective activity in Sprague-Dawley rat model of middle cerebral artery occlusion-induced ischemia-reperfusion injury assessed as prevention of reperfusion injury at 5 mg/kg, iv measured after 24 hrs of post reperfusion by TTC staining based assay; type: functional, organism-based
[9] = target: D(2) dopamine receptor (Homo sapiens) (UniProt P14416); assay: Antagonist activity at DRD2L (unknown origin) by FLIPR assay
D(2) dopamine receptor (Homo sapiens), sequence (P14416 whole entry): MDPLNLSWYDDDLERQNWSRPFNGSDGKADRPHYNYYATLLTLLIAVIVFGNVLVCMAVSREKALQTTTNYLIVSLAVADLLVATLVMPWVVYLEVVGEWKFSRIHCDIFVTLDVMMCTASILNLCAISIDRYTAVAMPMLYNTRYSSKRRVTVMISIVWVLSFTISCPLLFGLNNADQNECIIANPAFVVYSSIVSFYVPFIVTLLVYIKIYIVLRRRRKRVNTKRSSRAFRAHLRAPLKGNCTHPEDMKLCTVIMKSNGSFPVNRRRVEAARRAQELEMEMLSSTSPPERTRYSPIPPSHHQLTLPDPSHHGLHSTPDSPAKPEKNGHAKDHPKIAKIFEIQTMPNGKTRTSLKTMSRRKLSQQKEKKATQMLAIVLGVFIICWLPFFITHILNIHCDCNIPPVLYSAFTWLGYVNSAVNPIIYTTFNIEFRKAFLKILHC

HT-1080 [10] = assay: Inhibition of LOX expression in erastin-induced human HT-1080 cell ferroptosis model at 0.01 to 1 uM after 10 hrs by Western blot analysis; type: functional; settings: dose 0.01-1 µM
[11] = target: Histamine H1 receptor (Homo sapiens) (UniProt P35367); assay: Antagonist activity at H1 (unknown origin) by FLIPR assay
Histamine H1 receptor (Homo sapiens), sequence (P35367 whole entry): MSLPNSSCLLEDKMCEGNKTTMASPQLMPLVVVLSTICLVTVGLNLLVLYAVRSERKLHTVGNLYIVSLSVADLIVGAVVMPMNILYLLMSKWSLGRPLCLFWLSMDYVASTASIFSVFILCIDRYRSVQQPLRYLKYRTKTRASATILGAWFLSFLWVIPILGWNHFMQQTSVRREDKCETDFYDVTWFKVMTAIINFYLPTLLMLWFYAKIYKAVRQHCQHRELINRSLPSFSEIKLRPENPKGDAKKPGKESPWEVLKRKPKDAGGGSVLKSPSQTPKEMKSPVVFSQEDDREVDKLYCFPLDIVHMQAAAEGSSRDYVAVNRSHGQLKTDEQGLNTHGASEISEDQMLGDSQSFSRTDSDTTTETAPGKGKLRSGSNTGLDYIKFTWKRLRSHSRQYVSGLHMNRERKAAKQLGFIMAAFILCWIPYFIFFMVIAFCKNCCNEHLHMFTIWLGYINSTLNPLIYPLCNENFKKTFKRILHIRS

Calu-1 = assay: Antioxidant activity in erastin-induced human Calu-1 cell ferroptosis model assessed as decrease in lipid ROS accumulation at 0.01 to 1 uM incubated for 8 to 24 hrs by BODIPY 581/591 C11 staining based flow cytometric analysis; type: functional; settings: dose 0.01-1 µM, time 8-24 hrs
[12] = target: T1, Alpha-1B adrenergic receptor (Homo sapiens) (UniProt P35368); assay: Antagonist activity at ADRA1B (unknown origin) by FLIPR assay
T1 sequence (whole entry): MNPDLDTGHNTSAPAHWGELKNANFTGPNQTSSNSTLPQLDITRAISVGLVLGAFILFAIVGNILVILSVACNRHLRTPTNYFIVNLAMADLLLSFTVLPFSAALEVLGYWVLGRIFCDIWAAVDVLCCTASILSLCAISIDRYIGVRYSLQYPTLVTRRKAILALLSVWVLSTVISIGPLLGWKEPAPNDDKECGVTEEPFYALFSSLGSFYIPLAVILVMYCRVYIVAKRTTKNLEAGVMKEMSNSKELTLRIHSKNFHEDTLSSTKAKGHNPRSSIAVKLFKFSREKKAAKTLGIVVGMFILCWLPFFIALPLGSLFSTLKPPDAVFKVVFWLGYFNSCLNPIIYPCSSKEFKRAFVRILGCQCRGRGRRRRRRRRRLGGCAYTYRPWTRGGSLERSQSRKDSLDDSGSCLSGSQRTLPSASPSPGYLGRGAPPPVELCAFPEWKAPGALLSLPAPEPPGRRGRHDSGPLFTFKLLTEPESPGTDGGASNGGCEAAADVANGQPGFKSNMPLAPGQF

HT-1080 [13] = assay: Inhibition of H2O2-induced oxidative cell death in human HT-1080 cells at 10 uM incubated for 24 hrs; type: functional, cell-based

SMILES: CC(c1ccc(N2CCN(C)CC2)cc1)c1ccc2c(c1)Nc1ccccc1S2 (stereo not given)
- Activity (Rattus norvegicus [1]): Active
- EC50 (MDA-MB-231): 0.000424 µM
- IC50 [2]: > 10 µM
- Activity (HT-1080 [3]): Active
- Activity (HT-1080 [4]): Active
- Activity [5]: inactive
- IC50 [6]: > 10 µM
- Activity [7]: inactive
- Activity (Rattus norvegicus [8]): Active
- Activity [9]: inactive
- inhibition (HT-1080 [10]): inactive
- Activity [11]: inactive
- Activity (Calu-1): Active
- Activity [12]: inactive
- Activity (HT-1080 [13]): inactive
